Reference: patent publication US20040044037A1, “Amidino-urea serotonin receptor ligands and compositions, their pharmaceutical uses, and methods for their snythesis” (priority 2003, published 2004)
Like-named read-outs stand apart in the source and are kept apart here.

Key:
[1] = biological target: T1, human D2S dopamine (hD2S-DA) receptors (Homo sapiens, UniProt P14416); assay: Competition radioligand binding, hD2S dopamine
T1 construct: purchased Receptor Biology, Inc. (Beltsville, Md.); host or cells: A9 L cells
T1 sequence (P14416 1-414 isoform P14416-2): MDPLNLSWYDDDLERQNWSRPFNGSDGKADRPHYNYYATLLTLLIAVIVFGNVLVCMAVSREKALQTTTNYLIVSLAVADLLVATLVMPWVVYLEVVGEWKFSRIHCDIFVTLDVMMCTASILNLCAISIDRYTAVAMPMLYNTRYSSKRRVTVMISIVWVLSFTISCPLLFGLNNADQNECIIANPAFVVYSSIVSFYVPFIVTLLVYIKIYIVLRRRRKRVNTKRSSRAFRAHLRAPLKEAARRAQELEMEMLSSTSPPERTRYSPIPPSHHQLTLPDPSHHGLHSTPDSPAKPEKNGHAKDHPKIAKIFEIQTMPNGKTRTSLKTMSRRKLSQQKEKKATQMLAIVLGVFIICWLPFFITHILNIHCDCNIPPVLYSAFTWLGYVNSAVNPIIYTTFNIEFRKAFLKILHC

human 5-HT1a receptors = biological target: T2, human 5-HT1a receptors (Homo sapiens, UniProt P08908); assay: Competition radioligand binding, h5-HT1a
T2 construct: expressed in transfected cells; host or cells: CHO K1 cells
T2 sequence (P08908 1-422): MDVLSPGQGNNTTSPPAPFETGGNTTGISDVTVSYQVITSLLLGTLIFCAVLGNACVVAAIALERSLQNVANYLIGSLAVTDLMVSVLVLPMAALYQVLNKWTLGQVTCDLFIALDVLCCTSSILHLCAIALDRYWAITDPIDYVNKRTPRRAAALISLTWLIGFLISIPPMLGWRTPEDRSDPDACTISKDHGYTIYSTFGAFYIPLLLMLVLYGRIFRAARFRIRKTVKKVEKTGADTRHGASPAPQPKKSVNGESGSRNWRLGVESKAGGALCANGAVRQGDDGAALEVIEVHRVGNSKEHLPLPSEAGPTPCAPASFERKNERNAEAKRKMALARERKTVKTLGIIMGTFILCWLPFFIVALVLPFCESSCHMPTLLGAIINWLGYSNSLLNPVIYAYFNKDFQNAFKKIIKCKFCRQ
Summary of the method: (§1)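 Human 5-HT1a and 5-HT2a receptors were expressed in CHO K1 cell membranes. Competition binding was stopped by filtration onto PEI-soaked GF/C filters and counted by liquid scintillation. IC50 values and Hill slopes came from nonlinear regression, and Ki was calculated by Cheng–Prusoff.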

[2] = biological target: T3, human 5-HT7B (h5-HT7b) receptors (Homo sapiens, UniProt P34969); assay: Competition radioligand binding, h5-HT7b
T3 construct: expressed in transfected cells
T3 sequence (P34969 1-432 limits assumed): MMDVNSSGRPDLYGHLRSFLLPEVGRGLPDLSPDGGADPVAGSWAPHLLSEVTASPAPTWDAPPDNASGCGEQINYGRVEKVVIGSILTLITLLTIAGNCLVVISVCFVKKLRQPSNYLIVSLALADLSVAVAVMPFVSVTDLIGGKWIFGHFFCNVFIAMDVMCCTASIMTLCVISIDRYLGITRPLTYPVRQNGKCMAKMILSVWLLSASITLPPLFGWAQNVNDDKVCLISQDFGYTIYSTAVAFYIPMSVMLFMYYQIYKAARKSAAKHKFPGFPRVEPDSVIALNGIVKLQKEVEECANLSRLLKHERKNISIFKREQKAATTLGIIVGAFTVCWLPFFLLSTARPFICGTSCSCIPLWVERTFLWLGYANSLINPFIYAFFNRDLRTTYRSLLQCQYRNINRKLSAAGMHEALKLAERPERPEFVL
Summary of the method: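 Membranes from HEK 293 cells stably expressing human 5-HT7b incubated with ~0.2 nM [3H]5-CT and varying compound 2 h at 37 °C in HEPES buffer pH 7.4 with pargyline. Nonspecific binding with 1 μM 5-HT; filtration, scintillation counting; IC50 by nonlinear regression converted to Ki via Cheng–Prusoff.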

human 5HT2a receptors = biological target: T4, human 5HT2a receptors (Homo sapiens, UniProt P28223); assay: Competition radioligand binding, 5-HT2A
T4 construct: expressed in transfected cells; host or cells: CHO K1 cells
T4 sequence (P28223 whole entry): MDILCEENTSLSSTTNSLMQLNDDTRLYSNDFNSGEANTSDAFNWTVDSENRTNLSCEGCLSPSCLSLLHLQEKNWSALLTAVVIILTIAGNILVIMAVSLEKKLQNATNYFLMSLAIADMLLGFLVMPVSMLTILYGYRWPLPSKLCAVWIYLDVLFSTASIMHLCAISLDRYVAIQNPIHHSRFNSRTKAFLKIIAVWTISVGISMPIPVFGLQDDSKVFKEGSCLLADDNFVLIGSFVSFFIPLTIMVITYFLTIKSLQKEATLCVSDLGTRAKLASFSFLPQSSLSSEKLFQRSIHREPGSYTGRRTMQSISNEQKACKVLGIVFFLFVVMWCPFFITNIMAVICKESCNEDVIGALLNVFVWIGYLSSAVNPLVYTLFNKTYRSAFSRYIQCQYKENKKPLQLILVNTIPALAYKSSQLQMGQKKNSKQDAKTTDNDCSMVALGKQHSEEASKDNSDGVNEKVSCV
Summary of the method: as §1

[3] = biological target: T5, human 5-HT6 (h5-HT6) receptors (Homo sapiens, UniProt P50406); assay: Competition radioligand binding, h5-HT6
T5 construct: purchased Receptor Biology, Inc. (Beltsville, Md.); host or cells: HEK-293 cells
T5 sequence (P50406 whole entry): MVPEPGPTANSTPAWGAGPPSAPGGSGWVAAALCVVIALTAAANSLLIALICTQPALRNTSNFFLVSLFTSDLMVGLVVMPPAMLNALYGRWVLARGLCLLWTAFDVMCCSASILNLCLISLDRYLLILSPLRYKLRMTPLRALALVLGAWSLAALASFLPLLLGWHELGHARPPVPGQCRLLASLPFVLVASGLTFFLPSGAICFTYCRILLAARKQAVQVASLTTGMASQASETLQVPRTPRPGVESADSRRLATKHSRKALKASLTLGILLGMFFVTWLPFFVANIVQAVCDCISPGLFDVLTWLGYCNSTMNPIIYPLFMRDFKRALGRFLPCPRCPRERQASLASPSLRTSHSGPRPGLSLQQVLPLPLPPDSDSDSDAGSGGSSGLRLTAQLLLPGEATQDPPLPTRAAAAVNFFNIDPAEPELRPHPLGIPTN

[4] = [3H]Spiperone, membranes of A9 L cells, read-out: Ki D2
[5] = [3H]5-CT, membranes of CHO K1 cells, read-out: Ki 5-HT1A
[6] = [3H]5-CT, membranes of HEK 293 cells, read-out: Ki 5-HT7
[7] = [3H]Ketanserin, membranes of CHO K1 cells, read-out: Ki 5-HT2A
[8] = [3H]LSD, membranes of HEK-293 cells, read-out: Ki 5-HT6

Row | SMILES | Ki [1, 4] [µM] | Ki (human 5-HT1a receptors; [5]) [µM] | Ki [2, 6] [µM] | Ki (human 5HT2a receptors; [7]) [µM] | Ki [3, 8] [µM] | Ki [1] [µM] | Ki (human 5-HT1a receptors) [µM] | Ki [2] [µM] | Ki (human 5HT2a receptors) [µM] | Ki [3] [µM]
1 | N=C(NCc1cccc2ccccc12)NC(=O)NCC1CCN(Cc2cccc(Cl)c2)CC1 [Example 73, 1-(3-Chlorobenzyl)-4-({[({imino[(1-naphthylmethyl)amino]methyl}amino)carbonyl]amino}methyl)piperidine] | 0.83 | 0.39 | 0.021 | 0.0087 | 0.75 |  |  |  |  | 
2 | N=C(NCc1cccc2ccccc12)NC(=O)NCC1CCN(Cc2cc(F)cc(F)c2)CC1 [Example 74, 1-(3,5-Difluorobenzyl)-4-({[({imino[(1-naphthylmethyl)amino]methyl}amino)carbonyl]amino}methyl)piperidine] | 1.34 | 0.3 | 0.028 | 0.0041 | 1.91 |  |  |  |  | 
3 | N=C(NCc1cccc2ccccc12)NC(=O)NCC1CCN(Cc2ccccc2)CC1 [Example 75, 1-Benzyl-4-({[({imino[(1-naphthylmethyl)amino]methyl}amino)carbonyl]amino}methyl)piperidine] | 2.3 | 0.34 | 0.029 | 0.0049 | 4.01 |  |  |  |  | 
4 | Cc1ccc(CN2CCC(CNC(=O)NC(=N)NCc3cccc4ccccc34)CC2)cc1 [Example 76, 4-({[({Imino[(1-naphthylmethyl)amino]methyl}amino)carbonyl]amino}methyl)-1-(4-methylbenzyl)piperidine] | 1.9 | 0.55 | 0.046 | 0.0068 | 3.38 |  |  |  |  | 
5 | N=C(NCc1cccc2ccccc12)NC(=O)NCC1CCN(Cc2ccc(F)cc2)CC1 [Example 77, 1-(4-Fluorobenzyl)-4-({[({imino[(1-naphthylmethyl)amino]methyl}amino)carbonyl]amino}methyl)piperidine] | 1.27 | 1.09 | 0.019 | 0.0095 | 3.35 |  |  |  |  | 
6 | CCOc1ccccc1CNC(=N)NC(=O)N1CCC(Nc2ccccc2)CC1 [Example 78, N-[(4-Anilino-1-piperidinyl)carbonyl]-N′-(2-ethoxybenzyl)guanidine] |  |  |  |  |  | > 2.5 | > 4 | 0.034 | 0.17 | 6.87
7 | N=C(NCc1ccccc1-c1ccccc1)NC(=O)N1CCC(Nc2ccccc2)CC1 [Example 79, N-[(4-Anilino-1-piperidinyl)carbonyl]-N′-([1,1′-biphenyl]-2-ylmethyl)guanidine] |  |  |  |  |  | > 2.5 | > 4 | 0.099 | 0.91 | 2.4
8 | N=C(NCc1c(Cl)cccc1Oc1ccccc1)NC(=O)N1CCC(Nc2ccccc2)CC1 [Example 80, N-[(4-Anilino-1-piperidinyl)carbonyl]-N′-(2-chloro-6-phenoxybenzyl)guanidine] |  |  |  |  |  | > 2.5 | 3.65 | 0.041 | 0.93 | 2.3
9 | COc1cccc(OC)c1CNC(=N)NC(=O)N1CCC(Nc2ccccc2)CC1 [Example 81, N-[(4-Anilino-1-piperidinyl)carbonyl]-N′-(2,6-dimethoxybenzyl)guanidine] |  |  |  |  |  | 1.92 | 2.94 | 0.066 | 0.18 | 4.7
10 | CNC(=O)NC(=N)NCc1c(OC)cccc1OC [Example 85, 2-{[(Imino{[(methylamino)carbonyl]amino}methyl)amino]methyl}-1,3-dimethoxybenzene] | > 2.5 | 0.31 | 0.012 | 0.28 | 6.34 |  |  |  |  | 
11 | CNC(=O)NC(=N)NCc1ccccc1Oc1ccccc1Cl [Example 86, 1-(2-Chlorophenoxy)-2-{[(imino{[(methylamino)carbonyl]amino}methyl)amino]methyl}benzene] | > 2.5 | 0.92 | 0.0063 | 0.29 | 0.58 |  |  |  |  | 
12 | CNC(=O)NC(=N)NCc1cccc(-c2ccccc2)c1 [Example 87, 3-{[(Imino{[(methylamino)carbonyl]amino}methyl)amino]methyl}-1,1′-biphenyl] | > 2.5 | > 0.4 | 0.08 | 1.02 | 3.36 |  |  |  |  | 
